Measured values as given in patent US20040029172A1, “Generation of combinatorial libraries and assessment thereof by deconvolution” (priority 2000, published 2004).

Target: Concanavalin A (Canavalia ensiformis, UniProt P02866)
Conditions: FIG. 5; complete library 2:1-6 and 2:A-I
Description: Concanavalin A and all reagents were obtained from common commercial sources (Lancaster, Fluka, Aldrich, Bachem, Sigma). […] The binding effect of the equilibrated mixtures was determined using competitive inhibition of enzyme-labelled concanavalin A, and were carried out using a Victor microtiter plate reader.
The complete library (CL) was designed to contain near equal amounts of each final species at a concentration of approximately 12 μM. The final solution contained 2.5 mM of each carbohydrate aldehyde (2:1-6), and varying amounts of hydrazides: 2:A, 70 μM; 2:B-E, 0.24 mM; 2:F, 0.42 mM; 2:G, 0.65 mM; 2:H, 0.88 mM; 2:I, 2.5 mM. The mixture was made in ammonium formate buffer at pH 4.0, and was equilibrated at ambient temperature for one week to ensure full reaction.
The different sublibraries (SL1-SLI) were prepared under identical conditions, where one component (2:1-6, 2:A-I) was removed from the mixture each time. Aliquots of the solution were subsequently taken out to test the inhibitory activity on Concanavalin A.

O=Cc1ccc(OC2OC(CO)C(O)C(O)C2O)cc1 (stereo not shown) [2:6]
effect on Con A binding when the component is removed from the complete library: largest effects
